Experimental data: ChEMBL document CHEMBL5608163, “Structure modification of anoplin for fighting resistant bacteria” (Eur J Med Chem, 2024)
Converted amounts (≈) assume the structure as drawn. Peptide text beside a SMILES is read from it. * marks the point of attachment. Nonanoyl = CCCCCCCCC(=O)*

Columns and labels:
[1] = test system: Pseudomonas aeruginosa; assay: Antibacterial activity against Pseudomonas aeruginosa PAO1 assessed as bacterial growth inhibition; assay type: functional
[2] = Hemolytic activity in human erythrocytes measured after 1 hrs by microplate reader analysis; assay type: toxicity, cell-based, Erythrocyte
[3] = test system: Bacillus subtilis; assay: Antibacterial activity against Bacillus subtilis assessed as bacterial growth inhibition; assay type: functional
[4] = test system: Escherichia coli; assay: Antibacterial activity against Escherichia coli DH5a assessed as bacterial growth inhibition; assay type: functional
[5] = test system: Mycolicibacterium smegmatis; assay: Antibacterial activity against Mycobacterium smegmatis mc2 155 assessed as bacterial growth inhibition; assay type: functional
[6] = test system: Zymomonas mobilis; assay: Antibacterial activity against Zymomonas mobilis ATCC 10988 assessed as bacterial growth inhibition; assay type: functional
[7] = test system: Escherichia coli; assay: Antibacterial activity against Escherichia coli; assay type: functional
[8] = test system: Staphylococcus aureus; assay: Antibacterial activity against Staphylococcus aureus; assay type: functional
[9] = Hemolytic activity in human RBC assessed as hemolysis; assay type: toxicity, cell-based, Erythrocyte; details: red blood cells
[10] = test system: Staphylococcus aureus; assay: Antibacterial activity against Staphylococcus aureus ATCC 25923 assessed as reduction in bacterial growth incubated for 24 hrs by serial dilution method; assay type: functional
[11] = test system: Escherichia coli; assay: Antibacterial activity against Escherichia coli ATCC 25922 assessed as bacterial growth inhibition measured after 48 hrs by resazurin assay; assay type: functional

| SMILES | MIC [7] [µM] | MIC [8] [µM] | HC50 [9] [µM] | MIC [10] [µM] | MIC [11] [µM] | also measured |
| --- | --- | --- | --- | --- | --- | --- |
| CCCCCCCCC(=O)NCC(=O)N[C@@H](CC(C)C)C(=O)N[C@@H](CC(C)C)C(=O)N[C@@H](CCCCN)C(=O)N[C@H](C(=O)N[C@H](C(=O)N[C@@H](CCCCN)C(=O)N[C@@H](CCCCN)C(=O)N[C@@H](CC(C)C)C(=O)N[C@@H](CC(C)C)C(N)=O)[C@@H](C)CC)[C@@H](C)CC (Nonanoyl-GLLKIIKKLL-NH2) |  |  |  |  |  | MIC [1]: 23.3 µM (≈ 29.7 µg/mL); HC50 at 1 h [2]: > 155 µM; MIC [3]: 5.43 µM (≈ 6.94 µg/mL); MIC [4]: > 155 µM; MIC [5]: 15.5 µM (≈ 19.8 µg/mL); MIC [6]: 7.75 µM (≈ 9.9 µg/mL) |
| CC[C@H](C)[C@H](NC(=O)[C@H](CCCNC(=N)N)NC(=O)[C@H](CCCCN)NC(=O)[C@H](CC(C)C)NC(=O)[C@H](CC(C)C)NC(=O)[C@@H](N)CCCCN)C(=O)N[C@@H](CCCCN)C(=O)N[C@H](C(=O)N[C@@H](CC(C)C)C(=O)N[C@@H](CC(C)C)C(N)=O)[C@@H](C)O (H-KLLKRIKTLL-NH2) | 19.6 (≈ 24 µg/mL) | > 19.6 | 29.3 |  |  |  |
| CC[C@H](C)[C@H](NC(=O)[C@@H](NC(=O)[C@H](CCCCN)NC(=O)[C@H](CC(C)C)NC(=O)[C@H](CC(C)C)NC(=O)[C@@H](N)CCCCN)C(C)C)C(=O)N[C@@H](CCCCN)C(=O)N[C@@H](CCCCN)C(=O)N[C@@H](CC(C)C)C(=O)N[C@@H](CC(C)C)C(N)=O (H-KLLKVIKKLL-NH2) | 5 (≈ 5.97 µg/mL) | 7.5 (≈ 8.96 µg/mL) |  |  |  |  |
| CC[C@H](C)[C@H](NC(=O)[C@H](CCCNC(=N)N)NC(=O)[C@H](CCCCN)NC(=O)[C@H](CC(C)C)NC(=O)[C@H](CC(C)C)NC(=O)[C@@H](N)CCCCN)C(=O)N[C@@H](CCCCN)C(=O)N[C@@H](CCCCN)C(=O)N[C@@H](CC(C)C)C(=O)N[C@@H](CC(C)C)C(N)=O (H-KLLKRIKKLL-NH2) | 29.6 (≈ 37.1 µg/mL) | 22.4 (≈ 28 µg/mL) | 193 |  |  |  |
| CC[C@H](C)[C@H](NC(=O)[C@H](CCCNC(=N)N)NC(=O)[C@H](CCCCN)NC(=O)[C@H](CC(C)C)NC(=O)[C@H](CC(C)C)NC(=O)CN)C(=O)N[C@@H](CCCCN)C(=O)N[C@@H](Cc1c[nH]c2ccccc12)C(=O)N[C@@H](CC(C)C)C(=O)N[C@@H](CC(C)C)C(N)=O (H-GLLKRIKWLL-NH2) |  |  | 500 | 3.2 (≈ 3.96 µg/mL) | 6.5 (≈ 8.05 µg/mL) |  |
| CC[C@H](C)[C@H](NC(=O)[C@H](Cc1ccccc1)NC(=O)[C@H](CCCCN)NC(=O)[C@H](CC(C)C)NC(=O)[C@H](CC(C)C)NC(=O)[C@@H](N)CCCCN)C(=O)N[C@@H](CCCCN)C(=O)N[C@H](C(=O)N[C@@H](CC(C)C)C(=O)N[C@@H](CC(C)C)C(N)=O)[C@@H](C)O (H-KLLKFIKTLL-NH2) | 2.5 (≈ 3.04 µg/mL) | 5.8 (≈ 7.05 µg/mL) | 295 |  |  |  |
| CC[C@H](C)[C@H](NC(=O)[C@H](CCCNC(=N)N)NC(=O)[C@H](CCCCN)NC(=O)[C@H](CC(C)C)NC(=O)[C@H](CC(C)C)NC(=O)CN)C(=O)N[C@@H](CCCCN)C(=O)N[C@@H](CC(N)=O)C(=O)N[C@@H](CC(C)C)C(=O)N[C@@H](CC(C)C)C(N)=O (H-GLLKRIKNLL-NH2) |  |  | 79.2 | 10.3 (≈ 12 µg/mL) | 18.9 (≈ 22 µg/mL) |  |
| CC[C@H](C)[C@H](NC(=O)[C@H](CCCNC(=N)N)NC(=O)[C@H](CCCCN)NC(=O)[C@H](CC(C)C)NC(=O)[C@H](CC(C)C)NC(=O)CN)C(=O)N[C@@H](CCCCN)C(=O)N[C@H](C(=O)N[C@@H](CC(C)C)C(=O)N[C@@H](CC(C)C)C(N)=O)C(C)C (H-GLLKRIKVLL-NH2) |  |  | 69.5 | 19.1 (≈ 22 µg/mL) | 19.1 (≈ 22 µg/mL) |  |
| CC[C@H](C)[C@H](NC(=O)[C@@H](NC(=O)[C@H](CCCCN)NC(=O)[C@H](CC(C)C)NC(=O)[C@H](CC(C)C)NC(=O)CN)C(C)C)C(=O)N[C@@H](CCCCN)C(=O)N[C@H](C(=O)N[C@@H](CC(C)C)C(=O)N[C@@H](CC(C)C)C(N)=O)C(C)C (H-GLLKVIKVLL-NH2) | 25.6 (≈ 28 µg/mL) | 12.8 (≈ 14 µg/mL) | 190 |  |  |  |
